The text below walks through data of ChEMBL document CHEMBL5465560, “Selectivity Literature for EUbOPEN Chemogenomic Library” (2024).

pIC50: −log10 of the molar value.

The target in data set [1] is T1, Mitogen-activated protein kinase kinase kinase 2 (Homo sapiens) (UniProt Q9Y2U5).
T1 sequence (whole entry): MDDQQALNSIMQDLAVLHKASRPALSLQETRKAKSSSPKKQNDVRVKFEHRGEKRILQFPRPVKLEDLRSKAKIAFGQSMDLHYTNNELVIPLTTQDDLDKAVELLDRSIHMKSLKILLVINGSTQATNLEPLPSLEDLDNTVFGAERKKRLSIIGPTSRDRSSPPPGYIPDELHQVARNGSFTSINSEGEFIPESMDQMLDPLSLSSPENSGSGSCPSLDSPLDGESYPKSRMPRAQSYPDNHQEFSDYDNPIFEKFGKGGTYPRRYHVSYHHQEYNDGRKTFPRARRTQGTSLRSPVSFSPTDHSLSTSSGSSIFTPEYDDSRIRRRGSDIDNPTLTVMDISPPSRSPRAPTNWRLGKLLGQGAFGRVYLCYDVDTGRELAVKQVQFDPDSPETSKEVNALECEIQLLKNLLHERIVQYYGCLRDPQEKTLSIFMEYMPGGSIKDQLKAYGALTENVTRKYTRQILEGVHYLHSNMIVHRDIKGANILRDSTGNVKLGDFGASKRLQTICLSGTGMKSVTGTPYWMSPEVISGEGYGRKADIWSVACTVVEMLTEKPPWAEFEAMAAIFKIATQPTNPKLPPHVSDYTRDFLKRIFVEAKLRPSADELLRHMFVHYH
The experiment in a line: Selectivity interaction (ActivX KiNativ screen (ex vivo kinase selectivity in human PBMCs)) EUB0001619a MAP3K2. The data set is classed as cell-based. As to conditions: PBMC, at 1 µM.

Data set [2] has as its target Tyrosine-protein kinase Lck (Homo sapiens, UniProt P06239). Nature of the data set: Selectivity interaction (KinomeScan (DiscoverX)) EUB0000666a LCK. The settings on record: at 10 µM.
Data set [3] has as its target Cyclin-dependent kinase 13 (Homo sapiens, UniProt Q14004). The experiment in a line: Selectivity interaction (KinomeScan (DiscoverX)) EUB0000607a CDK13. The settings on record: at 10 µM.
Data set [4] deals with Tyrosine-protein kinase BTK (Homo sapiens, UniProt Q06187). Nature of the data set: Selectivity interaction (ActivX KiNativ screen (kinase selectivity in THP-1 cell lysates)) EUB0000639a BTK. The format is subcellular. As to conditions: lysate, at 5 µM.
For data set [5], the target named is T2, Cytoplasmic tyrosine-protein kinase BMX (Homo sapiens) (UniProt P51813).
T2 sequence (whole entry): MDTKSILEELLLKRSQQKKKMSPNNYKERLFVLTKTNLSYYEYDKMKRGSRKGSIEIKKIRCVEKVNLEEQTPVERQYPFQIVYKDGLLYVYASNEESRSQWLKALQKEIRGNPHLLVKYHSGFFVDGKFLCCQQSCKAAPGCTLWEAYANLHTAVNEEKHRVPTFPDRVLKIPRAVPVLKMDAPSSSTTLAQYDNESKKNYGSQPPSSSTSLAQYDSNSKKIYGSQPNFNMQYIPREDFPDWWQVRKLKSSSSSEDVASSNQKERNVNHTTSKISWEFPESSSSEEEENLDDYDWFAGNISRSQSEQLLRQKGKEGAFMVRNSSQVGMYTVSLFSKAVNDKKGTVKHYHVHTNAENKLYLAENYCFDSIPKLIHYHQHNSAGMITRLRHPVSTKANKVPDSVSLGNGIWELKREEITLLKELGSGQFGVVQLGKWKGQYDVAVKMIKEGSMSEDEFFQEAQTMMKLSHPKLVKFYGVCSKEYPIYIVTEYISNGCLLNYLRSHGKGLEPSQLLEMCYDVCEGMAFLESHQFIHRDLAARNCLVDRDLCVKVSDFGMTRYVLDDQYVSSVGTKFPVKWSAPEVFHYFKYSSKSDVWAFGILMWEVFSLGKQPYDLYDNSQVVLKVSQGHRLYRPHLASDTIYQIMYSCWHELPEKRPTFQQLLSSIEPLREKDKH
The experiment in a line: Selectivity interaction (Kinase panel (Invitrogen)) EUB0000639a BMX. As to conditions: at 200 nM.

The target of data set [6] is DNA (cytosine-5)-methyltransferase 1 (Homo sapiens) (UniProt P26358). The settings on record: at 1 µM.
For data set [7], the target named is Ribosomal protein S6 kinase alpha-4 (Homo sapiens) (UniProt O75676). The experiment in a line: Selectivity interaction (KinomeScan (DiscoverX)) EUB0000045b RPS6KA4. The settings on record: at 10 µM.
Data set [8] concerns the target Protein kinase C beta type (Homo sapiens, UniProt P05771). The experiment in a line: Selectivity interaction (ProQinase) EUB0000171b PRKCB.
In data set [9] the target is Adenosine receptor A3 (Homo sapiens, UniProt P0DMS8). The experiment in a line: Selectivity interaction (Adenosine 3 receptor binding assay, human recombinant ) EUB0000877a ADORA3.
Adenosine receptor A3, sequence (P0DMS8 whole entry): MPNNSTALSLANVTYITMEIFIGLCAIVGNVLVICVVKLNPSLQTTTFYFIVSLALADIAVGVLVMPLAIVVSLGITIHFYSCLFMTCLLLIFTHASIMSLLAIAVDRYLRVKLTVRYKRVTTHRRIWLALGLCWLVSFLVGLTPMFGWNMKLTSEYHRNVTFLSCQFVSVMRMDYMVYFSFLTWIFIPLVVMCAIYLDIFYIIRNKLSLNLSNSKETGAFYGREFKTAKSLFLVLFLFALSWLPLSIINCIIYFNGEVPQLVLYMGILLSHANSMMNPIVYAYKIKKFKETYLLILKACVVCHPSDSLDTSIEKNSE
For data set [10], the target named is Platelet-derived growth factor receptor beta (Homo sapiens, UniProt P09619). Nature of the data set: Selectivity interaction (KinomeScan (DiscoverX)) EUB0000618a PDGFRB. As to conditions: at 10 µM.
Platelet-derived growth factor receptor beta, sequence (P09619 whole entry): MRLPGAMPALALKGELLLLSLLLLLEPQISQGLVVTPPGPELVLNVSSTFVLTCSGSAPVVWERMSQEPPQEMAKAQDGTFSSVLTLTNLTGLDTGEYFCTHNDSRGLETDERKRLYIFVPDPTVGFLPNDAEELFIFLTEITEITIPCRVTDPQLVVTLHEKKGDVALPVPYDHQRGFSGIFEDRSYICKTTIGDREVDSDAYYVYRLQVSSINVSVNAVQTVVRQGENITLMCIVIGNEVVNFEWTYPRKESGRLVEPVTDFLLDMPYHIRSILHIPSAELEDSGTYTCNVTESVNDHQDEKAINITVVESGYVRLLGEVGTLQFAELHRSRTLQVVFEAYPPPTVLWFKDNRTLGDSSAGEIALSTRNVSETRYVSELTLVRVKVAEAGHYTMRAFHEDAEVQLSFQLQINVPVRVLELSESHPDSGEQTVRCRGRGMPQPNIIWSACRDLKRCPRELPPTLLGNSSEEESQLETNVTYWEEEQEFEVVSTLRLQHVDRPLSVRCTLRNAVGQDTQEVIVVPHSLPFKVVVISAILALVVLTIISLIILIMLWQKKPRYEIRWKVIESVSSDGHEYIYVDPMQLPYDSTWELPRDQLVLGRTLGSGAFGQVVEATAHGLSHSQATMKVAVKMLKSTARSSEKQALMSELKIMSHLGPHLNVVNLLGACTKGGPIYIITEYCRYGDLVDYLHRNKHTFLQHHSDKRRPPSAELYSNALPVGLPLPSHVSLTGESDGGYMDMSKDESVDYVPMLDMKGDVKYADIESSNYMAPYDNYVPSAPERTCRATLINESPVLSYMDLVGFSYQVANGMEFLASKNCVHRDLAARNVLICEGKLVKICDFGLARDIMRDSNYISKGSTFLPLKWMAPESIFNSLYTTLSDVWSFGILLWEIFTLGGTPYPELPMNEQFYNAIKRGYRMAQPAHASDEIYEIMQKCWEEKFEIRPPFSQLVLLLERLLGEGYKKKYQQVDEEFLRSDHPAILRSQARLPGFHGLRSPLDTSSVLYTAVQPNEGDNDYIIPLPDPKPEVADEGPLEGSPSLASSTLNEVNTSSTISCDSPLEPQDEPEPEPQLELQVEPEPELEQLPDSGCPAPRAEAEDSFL
Data set [11] deals with T3, Serine/threonine-protein kinase BRSK1 (Homo sapiens) (UniProt Q8TDC3).
T3 sequence (whole entry): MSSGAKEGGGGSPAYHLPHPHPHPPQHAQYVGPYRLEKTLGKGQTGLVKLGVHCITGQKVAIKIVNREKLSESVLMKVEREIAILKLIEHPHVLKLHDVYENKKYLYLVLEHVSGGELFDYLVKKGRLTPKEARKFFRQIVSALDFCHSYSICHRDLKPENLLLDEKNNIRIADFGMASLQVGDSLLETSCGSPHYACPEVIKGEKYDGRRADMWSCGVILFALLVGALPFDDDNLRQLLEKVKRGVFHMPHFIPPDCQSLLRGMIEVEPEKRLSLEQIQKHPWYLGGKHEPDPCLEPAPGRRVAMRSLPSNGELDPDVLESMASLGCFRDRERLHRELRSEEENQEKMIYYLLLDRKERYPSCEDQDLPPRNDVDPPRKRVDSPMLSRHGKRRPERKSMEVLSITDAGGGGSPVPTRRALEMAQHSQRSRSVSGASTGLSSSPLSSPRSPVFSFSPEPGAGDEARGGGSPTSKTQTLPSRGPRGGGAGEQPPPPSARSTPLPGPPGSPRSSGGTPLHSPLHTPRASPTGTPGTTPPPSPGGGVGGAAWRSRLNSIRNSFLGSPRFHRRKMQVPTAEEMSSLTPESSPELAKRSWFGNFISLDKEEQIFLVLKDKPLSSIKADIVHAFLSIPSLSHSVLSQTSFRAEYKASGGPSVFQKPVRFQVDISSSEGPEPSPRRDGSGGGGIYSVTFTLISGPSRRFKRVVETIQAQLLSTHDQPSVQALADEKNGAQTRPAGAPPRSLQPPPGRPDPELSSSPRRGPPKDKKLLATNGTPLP
Nature of the data set: Selectivity interaction (KinomeScan (DiscoverX)) EUB0000092b BRSK1. The settings on record: at 10 µM.

Data set [12] addresses aryl hydrocarbon receptor (AHR) (Homo sapiens, UniProt P35869). Nature of the data set: Selectivity interaction (Panel of kinases, GPCRs, ion channels and transporters (enzymatic assay)) EUB0000266bCl AHR.

Protein kinase C beta type, sequence (P05771 2-671 limits assumed): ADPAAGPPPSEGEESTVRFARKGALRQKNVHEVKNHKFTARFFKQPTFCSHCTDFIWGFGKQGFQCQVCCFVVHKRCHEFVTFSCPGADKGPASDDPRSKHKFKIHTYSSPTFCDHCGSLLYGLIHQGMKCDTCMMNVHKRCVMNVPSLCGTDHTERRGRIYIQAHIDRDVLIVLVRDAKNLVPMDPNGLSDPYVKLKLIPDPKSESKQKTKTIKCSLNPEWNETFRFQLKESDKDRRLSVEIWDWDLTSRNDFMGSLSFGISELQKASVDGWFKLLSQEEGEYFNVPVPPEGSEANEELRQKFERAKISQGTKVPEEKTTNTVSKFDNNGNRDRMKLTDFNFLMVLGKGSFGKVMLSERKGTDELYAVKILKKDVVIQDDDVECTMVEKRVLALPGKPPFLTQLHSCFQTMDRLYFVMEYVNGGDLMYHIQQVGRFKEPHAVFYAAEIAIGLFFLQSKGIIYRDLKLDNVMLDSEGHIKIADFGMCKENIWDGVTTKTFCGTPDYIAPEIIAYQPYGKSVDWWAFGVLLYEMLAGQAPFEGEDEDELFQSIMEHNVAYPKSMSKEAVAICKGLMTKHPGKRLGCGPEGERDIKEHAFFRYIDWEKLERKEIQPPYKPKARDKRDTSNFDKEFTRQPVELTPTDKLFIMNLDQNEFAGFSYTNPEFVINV
aryl hydrocarbon receptor (AHR), sequence (P35869 whole entry): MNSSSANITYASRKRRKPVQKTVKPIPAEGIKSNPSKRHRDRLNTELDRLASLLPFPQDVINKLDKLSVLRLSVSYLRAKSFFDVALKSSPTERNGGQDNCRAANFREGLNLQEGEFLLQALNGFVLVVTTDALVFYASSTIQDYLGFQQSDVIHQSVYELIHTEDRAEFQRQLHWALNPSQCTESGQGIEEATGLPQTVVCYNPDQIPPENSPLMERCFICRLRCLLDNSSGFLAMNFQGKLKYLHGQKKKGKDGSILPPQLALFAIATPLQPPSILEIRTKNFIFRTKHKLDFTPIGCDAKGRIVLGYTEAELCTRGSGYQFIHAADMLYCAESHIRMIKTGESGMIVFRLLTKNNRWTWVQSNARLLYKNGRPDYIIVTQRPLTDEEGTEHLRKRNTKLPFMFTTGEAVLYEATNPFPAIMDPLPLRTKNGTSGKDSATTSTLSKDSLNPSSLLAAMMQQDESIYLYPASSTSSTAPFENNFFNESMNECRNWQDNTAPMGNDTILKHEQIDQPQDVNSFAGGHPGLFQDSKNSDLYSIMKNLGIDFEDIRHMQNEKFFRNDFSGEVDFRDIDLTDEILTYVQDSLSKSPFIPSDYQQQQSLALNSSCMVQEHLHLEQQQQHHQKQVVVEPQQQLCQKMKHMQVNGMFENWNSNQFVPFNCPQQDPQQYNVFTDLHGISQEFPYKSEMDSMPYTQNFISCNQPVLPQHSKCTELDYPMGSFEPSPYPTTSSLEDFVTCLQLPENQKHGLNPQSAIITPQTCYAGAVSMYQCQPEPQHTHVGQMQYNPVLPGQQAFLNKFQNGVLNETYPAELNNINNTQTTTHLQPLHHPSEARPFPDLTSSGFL
Cyclin-dependent kinase 13, sequence (Q14004 whole entry, looked up): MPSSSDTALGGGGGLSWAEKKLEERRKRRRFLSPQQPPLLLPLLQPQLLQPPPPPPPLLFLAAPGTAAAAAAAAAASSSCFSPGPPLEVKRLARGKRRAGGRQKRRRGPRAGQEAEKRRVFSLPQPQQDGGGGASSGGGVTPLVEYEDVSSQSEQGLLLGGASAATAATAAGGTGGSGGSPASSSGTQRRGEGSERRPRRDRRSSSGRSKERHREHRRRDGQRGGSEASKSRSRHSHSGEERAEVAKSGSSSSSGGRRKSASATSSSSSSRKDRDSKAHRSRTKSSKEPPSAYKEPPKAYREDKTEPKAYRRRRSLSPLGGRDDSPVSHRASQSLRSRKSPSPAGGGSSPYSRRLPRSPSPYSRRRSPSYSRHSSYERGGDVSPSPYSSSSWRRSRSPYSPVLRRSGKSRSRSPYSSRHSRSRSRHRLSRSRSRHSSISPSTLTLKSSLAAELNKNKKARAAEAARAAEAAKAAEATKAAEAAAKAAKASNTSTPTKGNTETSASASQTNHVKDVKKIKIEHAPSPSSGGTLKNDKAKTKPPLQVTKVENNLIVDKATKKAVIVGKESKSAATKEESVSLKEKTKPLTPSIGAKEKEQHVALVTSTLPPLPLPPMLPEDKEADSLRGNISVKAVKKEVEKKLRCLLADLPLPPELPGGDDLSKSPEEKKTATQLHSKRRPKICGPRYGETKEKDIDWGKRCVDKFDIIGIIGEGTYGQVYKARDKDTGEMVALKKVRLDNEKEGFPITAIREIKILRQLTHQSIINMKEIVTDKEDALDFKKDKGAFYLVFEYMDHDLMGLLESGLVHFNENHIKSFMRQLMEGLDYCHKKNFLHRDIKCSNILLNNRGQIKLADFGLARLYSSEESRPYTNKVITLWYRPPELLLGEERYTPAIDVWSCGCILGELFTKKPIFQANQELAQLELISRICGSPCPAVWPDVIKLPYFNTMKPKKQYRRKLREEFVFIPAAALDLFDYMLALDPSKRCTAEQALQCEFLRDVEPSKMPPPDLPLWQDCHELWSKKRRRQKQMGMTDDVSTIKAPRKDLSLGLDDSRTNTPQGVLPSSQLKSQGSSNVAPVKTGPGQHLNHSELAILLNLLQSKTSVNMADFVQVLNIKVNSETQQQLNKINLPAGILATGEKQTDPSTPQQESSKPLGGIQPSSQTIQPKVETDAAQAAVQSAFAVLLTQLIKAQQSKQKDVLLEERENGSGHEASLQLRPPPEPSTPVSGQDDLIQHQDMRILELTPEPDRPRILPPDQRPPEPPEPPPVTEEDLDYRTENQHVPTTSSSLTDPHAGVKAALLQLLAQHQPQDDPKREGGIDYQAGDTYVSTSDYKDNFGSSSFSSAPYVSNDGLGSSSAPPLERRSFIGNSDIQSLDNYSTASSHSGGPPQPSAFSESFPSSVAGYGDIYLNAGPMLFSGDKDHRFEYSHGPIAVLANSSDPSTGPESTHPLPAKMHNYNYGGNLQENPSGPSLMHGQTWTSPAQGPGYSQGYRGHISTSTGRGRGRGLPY
Tyrosine-protein kinase Lck, sequence (P06239 2-509 limits assumed): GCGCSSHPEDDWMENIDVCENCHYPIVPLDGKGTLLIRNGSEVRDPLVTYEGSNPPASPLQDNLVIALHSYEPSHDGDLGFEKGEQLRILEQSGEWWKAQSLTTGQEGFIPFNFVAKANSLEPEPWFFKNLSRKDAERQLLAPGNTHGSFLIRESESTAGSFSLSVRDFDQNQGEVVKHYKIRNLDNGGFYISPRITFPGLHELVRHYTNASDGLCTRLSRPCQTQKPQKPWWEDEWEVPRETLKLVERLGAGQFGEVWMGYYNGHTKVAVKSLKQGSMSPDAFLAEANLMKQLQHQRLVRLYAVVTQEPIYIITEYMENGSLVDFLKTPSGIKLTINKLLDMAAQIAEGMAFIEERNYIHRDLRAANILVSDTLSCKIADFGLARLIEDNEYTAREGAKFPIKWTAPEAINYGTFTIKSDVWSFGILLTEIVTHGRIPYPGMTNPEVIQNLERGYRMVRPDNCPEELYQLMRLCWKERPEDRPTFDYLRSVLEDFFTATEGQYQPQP

On to `N#Cc1cccc(-c2c[nH]c3ncnc(N4CCOCC4)c23)c1`, for which the % of inhibition in [1] turned out to be 22%.

On to `O=C(NOC[C@H](O)CO)c1ccc(F)c(F)c1Nc1ccc(I)cc1F`, for which the % of control in data set [2] amounted to 88%.

As to `CNC(=O)Nc1ccc(-c2nc(N3CC4CCC(C3)O4)c3cnn(C4CCC5(CC4)OCCO5)c3n2)cc1`, the % of control in [3] was 84%.

Turning to `CC[C@@H]1[C@H](F)C(=O)N[C@@H]1COc1nccc2cc(C(N)=O)c(OC)cc12` [ZIMLOVISERTIB], the figures for the % of inhibition in [4] and in data set [5] were -7% and -1.42%, respectively.

`CNCCN1CCC(c2cc(CN(C)C(=O)c3cccc(Oc4ccccc4)c3)ccn2)CC1` showed a % activity in [6] of more than 85%.

Molecule `C=CC(=O)Nc1cc(-n2c(=O)ccc3cnc4ccc(-c5ccc(NS(C)(=O)=O)cc5)cc4c32)ccc1C` returned a % of control in data set [7] of 81%.

Take `C=CC(=O)Nc1cccc(C(=O)Nc2ccc(Nc3cc(-c4[nH]c(SC)nc4C)ccn3)cc2)c1`: the % of control in [8] (at 1 µM) was determined as 111%; in data set [8] (at 5 µM), 106%.

For `CCC(=O)N1CC[C@H](Nc2ncnc3c2CN(c2cnc(OC)c(C(F)(F)F)c2)CC3)C1` [LENIOLISIB], the pIC50 in data set [9] was less than 4.52.

In the case of `O[C@H]1CC[C@H](Nc2ncc3nc(Nc4c(F)cc(F)cc4F)n([C@H]4CCOC4)c3n2)CC1`, the % of control in data set [10] is 64%.

`CCC(=O)N1CCN(c2ccc(-n3c(=O)ccc4cnc5ccc(-c6cnc7ccccc7c6)cc5c43)cc2C(F)(F)F)CC1` came in with a % of control in data set [11] of 78%.

`CCn1c(-c2nc3cc(C(=O)N4CCCC(N)C4)ccc3n2C)cc2ccccc21` (stereo not drawn) had an XC50 in data set [12] of more than 100 µM.

The term pIC50 denotes the negative decadic logarithm of the IC50, by convention in mol/L.
